Source: patent US20080113946A1, “N-aryl-5,7-dihydrofuro[3,4-d]pyrimidin-4-amines and analogs as activators of caspases and inducers of apoptosis and the use thereof” (Cyntovia, Inc., priority 2006, published 2008)

Legend:
Assay type in all cases: cell-based
[1] = system: human hepatocellular carcinoma cell line SNU398; assay: Caspase cascade activation (Ac-DEVD-R110 fluorogenic substrate) in SNU398 cells; conditions: SNU-398, incubated 24 or 48 h (Table I), 0.016 to 10 μM final, read-out: Caspase Activation Potency EC50 SNU398
Procedure: (§1) Human breast cancer cell line T-47D, human hepatocellular carcinoma cell line SNU398 and human colon carcinoma cell line HCT116 were grown according to media component mixtures designated by American Type Culture Collection+10% FCS (Invitrogen Corporation), in a 5% CO2-95% humidity incubator at 37° C. T-47D and H1299 cells were maintained at a cell density between 50 and 80% confluency at a cell density of 0.1 to 0.6×10^6 cells/mL. Cells were harvested at 600×g and resuspended at 0.65×10^6 cells/mL into appropriate media+10% FCS. An aliquot of 22.5 μL of cells was added to a well of a 384-well microtiter plate containing 2.5 μL of a 10% DMSO in RPMI-1640 media solution containing 0.16 to 100 μM of 5,7-dihydro-N-(3,5-dimethoxyphenyl)-2-(methylthio)furo[3,4-d]pyrimidin-4-amine or other test compound (0.016 to 10 μM final). An aliquot of 22.5 μL of cells was added to a well of a 384-well microtiter plate containing 2.5 μL of a 10% DMSO in RPMI-1640 media solution without test compound as the control sample. The samples were mixed by agitation and then incubated at 37° C. for 24 or 48 h in a 5% CO2-95% humidity incubator. After incubation, the samples were removed from the incubator and 25 μL of a solution containing 14 μM of N-(Ac-DEVD)-N′-ethoxycarbonyl-R110 (SEQ ID No.:1) fluorogenic substrate (Cytovia, Inc.; WO99/18856), 20% sucrose (Sigma), 20 mM DTT (Sigma), 200 mM NaCl (Sigma), 40 mM Na PIPES buffer pH 7.2 (Sigma), and 500 µg/mL lysolecithin (Calbiochem) was added. The samples were mixed by agitation and incubated at room temperature. Using a fluorescent plate reader (Model SPECTRAfluor Plus, Tecan), an initial reading (T=0) was made approximately 1-2 min after addition of the substrate solution, employing excitation at 485 nm and emission at 530 nm, to determine the background fluorescence of the control sample. After the 3 h incubation, the samples were read for fluorescence as above (T=3 h).
(§2) The Relative Fluorescence Unit values (RFU) were used to calculate the sample readings as follows: RFU(T=3h)−Control RFU(T=0)=Net RFU(T=3h)
(§3) The activity of caspase cascade activation was determined by the ratio of the net RFU value for 5,7-dihydro-N-(3,5-dimethoxyphenyl)-2-(methylthio)furo[3,4-d]pyrimidin-4-amino or other test compound to that of control samples. The EC50 (nM) was determined by a sigmoidal dose-response calculation (Prism 3.0, GraphPad Software Inc.).

[2] = system: human colon carcinoma cell line HCT116; assay: Caspase cascade activation (Ac-DEVD-R110 fluorogenic substrate) in HCT116 cells; conditions: HCT-116, incubated 24 or 48 h (Table I), 0.016 to 10 μM final, read-out: Caspase Activation Potency EC50 HCT116
Procedure: as §1, §2, §3

[3] = system: Human breast cancer cell line T-47D; assay: Caspase cascade activation (Ac-DEVD-R110 fluorogenic substrate) in T-47D cells; conditions: T47D, T-47D, incubated 24 or 48 h (Table I), 0.016 to 10 μM final, read-out: Caspase Activation Potency EC50 T-47D
Procedure: as §1, §2, §3

SMILES	EC50 [1]	EC50 [2]	EC50 [3]
COc1ccc(N(C)c2nc(SC)nc3c2COC3)cc1 [Example 8, 5,7-Dihydro-N-(4-methoxyphenyl)-N-methyl-2-(methylthio)furo[3,4-d]pyrimidin-4-amine]	2.56 µM	5.15 µM	3.19 µM
COc1cc(Nc2ncnc3c2COC3)cc(OC)c1 [Example 9, 5,7-Dihydro-N-(3,5-dimethoxyphenyl)-furo[3,4-d]pyrimidin-4-amine]	> 10 µM	> 10 µM	1.19 µM
Cc1nc2c(c(Nc3cccc(Br)c3)n1)COC2 [Example 10, 5,7-Dihydro-N-(3-bromophenyl)-2-methylfuro[3,4-d]pyrimidin-4-amine]	> 10 µM	> 10 µM	> 10 µM
COc1cc(Nc2nc(C)nc3c2COC3)cc(OC)c1 [Example 11, 5,7-Dihydro-N-(3,5-dimethoxyphenyl)-2-methylfuro[3,4-d]pyrimidin-4-amine]	> 10 µM	> 10 µM	1.29 µM
CSc1nc2c(c(Nc3cc(C)n[nH]3)n1)COC2 [Example 12, 5,7-Dihydro-N-(3-methyl-1H-pyrazol-5-yl)-2-(methylthio)furo[3,4-d]pyrimidin-4-amine]	> 10 µM	> 10 µM	> 10 µM
Cc1cc(Nc2nc(S(C)(=O)=O)nc3c2COC3)[nH]n1 [Example 13, 5,7-Dihydro-N-(3-methyl-1H-pyrazol-5-yl)-2-(methylsulfonyl)furo[3,4-d]pyrimidin-4-amine]	> 10 µM	> 10 µM	> 10 µM
Cc1cc(Nc2nc(Sc3ccc(NC(=O)C4CC4)cc3)nc3c2COC3)[nH]n1 [Example 14, N-(4-(4-(3-Methyl-1H-pyrazol-5-ylamino)-5,7-dihydrofuro[3,4-d]pyrimidin-2-ylthio)phenyl)cyclopropanecarboxamide]	1.36 µM	2.42 µM	2.74 µM

Next, values leading:

EC50 [1]	EC50 [2]	EC50 [3]	SMILES
9.07 µM	≥ 14.2 µM	14.1 µM	CS(=O)(=O)c1nc2c(c(Sc3ccc(NC(=O)C4CC4)cc3)n1)COC2 [Example 15, N-(4-(5,7-Dihydro-2-(methylsulfonyl)furo[3,4-d]pyrimidin-4-ylthio)phenyl)cyclopropanecarboxamide]
> 10 µM	> 10 µM	> 10 µM	Cc1cc(Nc2nc3c(c(Sc4ccc(NC(=O)C5CC5)cc4)n2)COC3)[nH]n1 [Example 16, N-(4-(2-(3-Methyl-1H-pyrazol-5-ylamino)-5,7-dihydrofuro[3,4-d]pyrimidin-4-ylthio)phenyl)cyclopropanecarboxamide]
> 10 µM	> 10 µM	> 10 µM	Cc1cc(Nc2nc(Cl)nc3c2CN(C(=O)OCC2c4ccccc4-c4ccccc42)C3)[nH]n1 [Example 17, (9H-Fluoren-9-yl)methyl 4-(3-methyl-1H-pyrazol-5-ylamino)-2-chloro-5H-pyrrolo[3,4-d]pyrimidine-6(7H)-carboxylate]
> 10 µM	> 10 µM	> 10 µM	CSc1nc2c(c(Nc3cccc(Br)c3)n1)CCC2 [Example 19, N-(3-Bromophenyl)-6,7-dihydro-2-(methylthio)-5H-cyclopenta[d]pyrimidin-4-amine]
2.69 µM	≥ 10.6 µM	> 10 µM	CSc1nc2c(c(Nc3cc(C)n[nH]3)n1)CCC2 [Example 20, 6,7-Dihydro-N-(5-methyl-1H-pyrazol-3-yl)-2-(methylthio)-5H-cyclopenta[d]pyrimidin-4-amine]
2.56 µM	> 10 µM	0.063 µM	COc1cc(Nc2nc(SC)nc3c2CCC3)cc(OC)c1 [Example 21, 6,7-Dihydro-N-(3,5-dimethoxyphenyl)-2-(methylthio)-5H-cyclopenta[d]pyrimidin-4-amine]
> 10 µM	> 10 µM	> 10 µM	CSc1nc2c(c(Nc3ccc(NC(=O)c4ccccc4)cc3)n1)CCC2 [Example 22, N-(4-(6,7-Dihydro-2-(methylthio)-5H-cyclopenta[d]pyrimidin-4-ylamino)phenyl)benzamide]
